Experimental data reported in article PMC6599250, “Functional diversity of inhibitors tackling the differentiation blockage of MLL-rearranged leukemia” (Journal of Hematology & Oncology, 2019).
Read-outs that look alike come from different tables or passages of the source.

Experiments:
Format in all cases: cell-based
[1] = system: MOLM-14 (MLL-AF9) cells; experiment: Cell proliferation (alamarBlue) MOLM-14; details: Homo sapiens, MOLM-14, MOLM-14 (MLL-AF9), read-out: IC50 proliferation
Procedure: (§1) Cells were seeded in the optimal growth medium at 4000–5000 cells/well in a 96 MTP and cultured 18–24 h before inhibitor treatment.

[2] = system: NOMO-1 (MLL-AF9) cells; experiment: Cell proliferation (alamarBlue) NOMO-1; details: Homo sapiens, NOMO-1, NOMO-1 (MLL-AF9), read-out: IC50 proliferation
Procedure: as §1

[3] = system: MLL-fused cell lines (MV4-11, MOLM-13); experiment: CD11b protein expression by flow cytometry, MLL-fused lines; details: 4 and 7 days of treatment
Procedure: (§2) Four thousand cells per well were seeded 24 h before they were treated with the indicated inhibitor in a 96 MTP. After 4 or 7 days of treatment, cells were washed with PBS and stained with CD11b - APC (BioLegend, San Diego, California, USA) and DAPI (Thermo Fisher Scientific, Waltham, Massachusetts, USA) or AnnexinV – FITC (BioLegend, San Diego, California, USA) and PI solution (Sigma-Aldrich St. Louis, Missouri, USA) using the FACS Canto II (BD Biosciences, Heidelberg, Germany) and data was analyzed with FACSDiva software.

[4] = system: OCI-AML-2 (MLL-AF9) cells; experiment: Cell proliferation (alamarBlue) OCI-AML-2; details: Homo sapiens, OCI-AML2, OCI-AML-2 (MLL-AF9), read-out: IC50 proliferation
Procedure: as §1

[5] = system: HL-60 cells; experiment: CD11b protein expression by flow cytometry, HL-60; details: non-fused HL-60 cell line, 4 and 7 days of treatment
Procedure: as §2

[6] = system: EOL-1 (MLL-TD) cells; experiment: Cell proliferation (alamarBlue) EOL-1; details: Homo sapiens, EOL1, EOL-1 (MLL-TD), read-out: IC50 proliferation
Procedure: as §1

[7] = system: OCI-AML-3 (MLL-WT) cells; experiment: Cell proliferation (alamarBlue) OCI-AML-3; details: Homo sapiens, OCI-AML-3, OCI-AML-3 (MLL-WT), read-out: IC50 proliferation
Procedure: as §1

[8] = system: RS4;11 (MLL-AF4) cells; experiment: Cell proliferation (alamarBlue) RS4;11; details: Homo sapiens, RS4-11, RS4;11 (MLL-AF4), read-out: IC50 proliferation
Procedure: as §1

[9] = system: KOPN-8 (MLL-ENL) cells; experiment: Cell proliferation (alamarBlue) KOPN-8; details: Homo sapiens, KOPN-8, KOPN-8 (MLL-ENL), read-out: IC50 proliferation
Procedure: as §1

[10] = system: MV4-11, MOLM-13 and HL-60 cells; experiment: Cell cycle analysis (PI, flow cytometry); details: 4 days of treatment (Figure S2)
Procedure: Cells were washed with PBS and fixed overnight at − 20 °C with 70% ethanol. Fixed cells were stained with PI solution (Sigma-Aldrich St. Louis, MO, USA) solution containing RNase A (Qiagen, Hilden, Germany). Fluorescence was measured with FACS Canto II (BD Biosciences, Heidelberg, Germany) flow cytometer and data was analyzed with FACSDiva software.

[11] = system: Jurkat (MLL-WT) cells; experiment: Cell proliferation (alamarBlue) Jurkat; details: Homo sapiens, Jurkat (MLL-WT)
Procedure: as §1

[12] = system: ML-2 (MLL-AF6) cells; experiment: Cell proliferation (alamarBlue) ML-2; details: ML-2 (MLL-AF6), read-out: IC50 proliferation
Procedure: as §1

[13] = system: OCI-AML-5 (MLL-WT) cells; experiment: Cell proliferation (alamarBlue) OCI-AML-5; details: Homo sapiens, OCI-AML-5, OCI-AML-5 (MLL-WT), read-out: IC50 proliferation
Procedure: as §1

[14] = system: MOLM-13 (MLL-AF9) cells; experiment: Cell proliferation (alamarBlue) MOLM-13; details: Homo sapiens, MOLM-13, MOLM-13 (MLL-AF9), read-out: IC50 proliferation
Procedure: as §1

[15] = system: HL-60 (MLL-WT) cells; experiment: Cell proliferation (alamarBlue) HL-60; details: for IC50: Homo sapiens, HL-60 (MLL-WT), read-out: IC50 proliferation
Procedure: as §1

[16] = system: SEM (MLL-AF4) cells; experiment: Cell proliferation (alamarBlue) SEM; details: SEM (MLL-AF4), read-out: IC50 proliferation
Procedure: as §1

[17] = system: selected MLL-fused models; experiment: Cell proliferation, AML/ALL panel; details: specifically in selected MLL-fused models (Fig. 2a); read-out: proliferation IC50 (significant effects)
Procedure: as §1

[18] = system: MV4-11 (MLL-AF4) cells; experiment: Cell proliferation (alamarBlue) MV4-11; details: Homo sapiens, MV4-11, MV4-11 (MLL-AF4), read-out: IC50 proliferation
Procedure: as §1

[19] = system: MV4-11, MOLM-13 and HL-60 cells; experiment: Cell proliferation, all three tested AML cell lines; details: 96 h; all tested cell lines (MV4-11, MOLM-13, HL-60), 4 days of treatment (Fig. 1a); read-out: anti-proliferation IC50s
Procedure: Cells were seeded in the optimal growth medium at 4000–5000 cells/well in a 96 MTP and cultured 18–24 h before inhibitor treatment. Upon treatment with the indicated inhibitor, cells were cultured for 24 h, 96 h, and 168 h and effects on proliferation were determined using alamarBlue Cell Viability Reagent (Thermo Fisher Scientific, Waltham, MA, USA).

[20] = D1, read-out: IC50 proliferation
[21] = D4, read-out: IC50 proliferation
[22] = D7, read-out: IC50 proliferation
[23] = 168 h, 7 days of treatment (D7)

CC(C)N(C[C@H]1O[C@@H](n2cnc3c(N)ncnc32)[C@H](O)[C@@H]1O)[C@H]1C[C@@H](CCc2nc3cc(C(C)(C)C)ccc3[nH]2)C1 [EPZ-5676]
IC50 ([1]; D1): > 10000 nM
IC50 ([1]; D4): 140 nM
IC50 ([1]; D7): 120 nM
IC50 ([2]; D1): > 10000 nM
IC50 ([2]; D4): > 10000 nM
IC50 ([2]; D7): 150 nM
CD11b protein level [3]: increased CD11b protein level in a dose and time-dependent manner
IC50 ([4]; D1): > 10 µM
IC50 ([4]; D4): > 10 µM
IC50 ([4]; D7): > 10 µM
CD11b level [5]: did not increase CD11b level
IC50 ([6]; D1): > 10000 nM
IC50 ([6]; D4): > 10000 nM
IC50 ([6]; D7): 120 nM
IC50 ([7]; D1): > 10 µM
IC50 ([7]; D4): > 10 µM
IC50 ([7]; D7): > 10 µM
IC50 ([8]; D1): > 10 µM
IC50 ([8]; D4): > 10 µM
IC50 ([8]; D7): > 10 µM
IC50 ([9]; D1): > 10 µM
IC50 ([9]; D4): > 10 µM
IC50 ([9]; D7): > 10 µM
cell cycle effect [10]: decrease of cells in S and G2/M phase with increasing concentrations
IC50 [11, 20]: > 10 µM
IC50 [11, 21]: > 10 µM
IC50 [11, 22]: > 10 µM
IC50 ([12]; D1): > 10 µM
IC50 ([12]; D4): > 10 µM
IC50 ([12]; D7): > 10 µM
IC50 ([13]; D1): > 10 µM
IC50 ([13]; D4): > 10 µM
IC50 ([13]; D7): > 10 µM
IC50 ([14]; D1): > 10 µM
IC50 ([14]; D4): > 10 µM
IC50 ([14]; D7): 6.57 µM
anti-proliferation effect in non-fused HL-60 ([15]; HL-60, 4 days of treatment (Fig. 1a)): no significant effects
IC50 ([15]; 24 h, 1 day of treatment (D1)): > 10 µM
IC50 ([15]; 96 h, 4 days of treatment (D4)): > 10 µM
IC50 [15, 23]: > 10 µM
IC50 ([16]; D1): > 10 µM
IC50 ([16]; D4): > 10 µM
IC50 ([16]; D7): > 10 µM
IC50 [17]: < 1000 nM
IC50 ([18]; D1): > 10000 nM
IC50 ([18]; D4): 250 nM
IC50 ([18]; D7): 280 nM

Cc1sc2c(c1C)C(c1ccc(Cl)cc1)=N[C@@H](CC(=O)Nc1ccc(O)cc1)c1nnc(C)n1-2 [OTX015]
IC50 ([1]; D1): > 10000 nM
IC50 ([1]; D4): 40 nM
IC50 ([1]; D7): 60 nM
IC50 ([2]; D1): > 10000 nM
IC50 ([2]; D4): 10 nM
IC50 ([2]; D7): 10 nM
CD11b protein level [3]: increased CD11b protein level in a dose and time-dependent manner
IC50 ([4]; D1): > 10 µM
IC50 ([4]; D7): 0.08 µM
CD11b level [5]: treatment did
IC50 ([6]; D1): > 10000 nM
IC50 ([6]; D4): 30 nM
IC50 ([6]; D7): 40 nM
IC50 ([7]; D1): > 10 µM
IC50 ([7]; D4): 0.04 µM
IC50 ([7]; D7): 0.07 µM
IC50 ([8]; D1): > 10 µM
IC50 ([8]; D4): 0.17 µM
IC50 ([8]; D7): 0.15 µM
IC50 ([9]; D1): > 10 µM
IC50 ([9]; D4): 0.3 µM
IC50 ([9]; D7): 0.32 µM
cell cycle effect [10]: decrease of cells in S and G2/M phase with increasing concentrations
IC50 [11, 20]: > 10 µM
IC50 [11, 21]: 0.1 µM
IC50 [11, 22]: 0.17 µM
IC50 ([12]; D1): > 10 µM
IC50 ([12]; D4): 0.39 µM
IC50 ([12]; D7): 0.18 µM
IC50 [19]: 30 to 140 nM
IC50 ([13]; D1): > 10 µM
IC50 ([13]; D4): 0.07 µM
IC50 ([13]; D7): 0.08 µM
IC50 ([14]; D1): > 10 µM
IC50 ([14]; D4): 0.03 µM
IC50 ([14]; D7): 0.11 µM
IC50 ([15]; 24 h, 1 day of treatment (D1)): > 10 µM
IC50 ([15]; 96 h, 4 days of treatment (D4)): 0.07 µM
IC50 [15, 23]: 0.27 µM
IC50 ([16]; D1): > 10 µM
IC50 ([16]; D4): 0.07 µM
IC50 ([16]; D7): 0.08 µM
IC50 ([18]; D1): > 10000 nM
IC50 ([18]; D4): 140 nM
IC50 ([18]; D7): 180 nM
